Experimental data from patent US11566007B2, “Ras inhibitors” (Revolution Medicines, Inc., priority 2019, dated 2023).
“And” between values parts separate entries of the source, which are not always exact repeats. Identical values can stand only once. Like-named read-outs stand apart in the source and are kept apart here.

What was measured:
[1] = test system: NCI-H358 cells (K-Ras G12C); assay: Potency assay: pERK in NCI-H358 cells; assay type: cell-based, human; conditions: H358 KRAS G12C, read-out: pERK EC50
In short: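 Compounds are dosed as ten 3-fold dilutions from a 10 mM DMSO stock, in duplicate, and left on cells for 4 h at 37 °C, 5% CO2. Phospho-ERK1/2 is then quantified by AlphaLISA SureFire Ultra or In-Cell Western, and IC50 is derived from a 4-parameter sigmoid against log concentration.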

[2] = test system: NCI-H358 (K-Ras G12C); assay: CellTiter-Glo cell viability assay, NCI-H358; assay type: cell-based, human; conditions: NCI-H358, 5-day treatment; class symbols; read-out: Additional H358 Cell Viability assay data (K-Ras G12C, IC50)
In short: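 Luminescent viability readout on day 5 after direct compound addition to plated cells; plates sat ~30 min at room temperature before reading. Values expressed as percent of mean DMSO signal, curves fit with a four-parameter logistic model.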

[3] = biological target: KRAS G12S (Homo sapiens (Human), UniProt P01116+P62937, G12S); assay: Ras-Raf (BRAF RBD) disruption / FRET / MOA assay, KRAS G12S; assay type: biochemical; conditions: Ras-Raf disruption/FRET/MOA assay; class symbols; read-out: KRAS G12S FRET data IC50
KRAS G12S, sequence (P01116-2 other isoform, or with tags, fused parts or gaps G12S): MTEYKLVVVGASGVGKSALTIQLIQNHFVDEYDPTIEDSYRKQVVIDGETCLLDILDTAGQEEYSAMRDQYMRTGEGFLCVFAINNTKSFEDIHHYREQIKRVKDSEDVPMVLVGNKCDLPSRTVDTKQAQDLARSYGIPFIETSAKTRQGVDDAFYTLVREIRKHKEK
KRAS G12S, sequence (P62937 whole entry): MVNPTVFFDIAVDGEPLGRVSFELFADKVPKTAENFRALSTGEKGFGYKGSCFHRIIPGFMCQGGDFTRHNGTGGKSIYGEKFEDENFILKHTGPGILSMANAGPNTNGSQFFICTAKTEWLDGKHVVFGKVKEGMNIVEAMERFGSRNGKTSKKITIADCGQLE
In short: (§1)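 Compound-driven ternary complex of nucleotide-loaded Ras with cyclophilin A, disrupting BRAF RBD binding. 10-point 3-fold dilution from 30 μM final, 3 h at 25° C, then anti-His Eu-W1024 (10 nM) and anti-GST allophycocyanin (50 nM) for 1.5 h. IC50 from TR-FRET ratio decrease versus DMSO.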

[4] = biological target: KRAS G12D (Homo sapiens (Human), UniProt P01116+P62937, G12D); assay: Ras-Raf (BRAF RBD) disruption / FRET / MOA assay, KRAS G12D; assay type: biochemical; conditions: Ras-Raf disruption/FRET/MOA assay; class symbols; read-out: KRAS G12D FRET data IC50
KRAS G12D, sequence (P01116-2 other isoform, or with tags, fused parts or gaps G12D): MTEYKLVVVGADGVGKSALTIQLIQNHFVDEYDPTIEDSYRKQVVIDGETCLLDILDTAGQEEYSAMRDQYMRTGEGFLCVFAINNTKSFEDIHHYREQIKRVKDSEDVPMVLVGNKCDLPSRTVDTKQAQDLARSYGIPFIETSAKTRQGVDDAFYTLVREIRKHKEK
KRAS G12D, sequence (P62937 whole entry): as the sequence (P62937 whole entry) above
In short: as §1

[5] = biological target: KRAS Q61H (Homo sapiens (Human), UniProt P01116+P62937, Q61H); assay: Ras-Raf (BRAF RBD) disruption / FRET / MOA assay, KRAS Q61H; assay type: biochemical; conditions: Ras-Raf disruption/FRET/MOA assay; class symbols; read-out: KRAS Q61H FRET data IC50
KRAS Q61H, sequence (P01116-2 other isoform, or with tags, fused parts or gaps Q61H): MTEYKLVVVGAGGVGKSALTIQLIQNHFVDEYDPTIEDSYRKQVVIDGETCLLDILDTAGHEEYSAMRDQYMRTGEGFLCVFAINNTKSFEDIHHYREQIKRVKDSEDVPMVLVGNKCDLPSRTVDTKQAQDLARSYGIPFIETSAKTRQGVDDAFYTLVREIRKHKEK
KRAS Q61H, sequence (P62937 whole entry, canonical isoform): as the sequence (P62937 whole entry) above
Procedure: (§2) The purpose of this biochemical assay is to measure the ability of test compounds to facilitate ternary complex formation between a nucleotide-loaded Ras isoform and cyclophilin A; the resulting ternary complex disrupts binding to a BRAF^RBD construct, inhibiting Ras signaling through a RAF effector.
(§3) […]. Compound is present in plate wells as a 10-point 3-fold dilution series starting at a final concentration of 30 μM. After incubation at 25° C. for 3 hours, a mixture of Anti-His Eu-W1024 and anti-GST allophycocyanin is then added to assay sample wells at final concentrations of 10 nM and 50 nM, respectively, and the reaction incubated for an additional 1.5 hours. […] Compounds that facilitate disruption of a Ras:RAF complex are identified as those eliciting a decrease in the TR-FRET ratio relative to DMSO control wells.
(§4) Note—The following protocol describes a procedure for monitoring disruption of K-Ras G12C (GMP-PNP) binding to BRAF^RBD by a compound of the invention. This protocol may also be executed substituting other Ras proteins or nucleotides.
(§5) The purpose of this biochemical assay was to measure the ability of test compounds to facilitate ternary complex formation between a nucleotide-loaded K-Ras isoform and Cyclophilin A; the resulting ternary complex disrupts binding to a BRAF^RBD construct, inhibiting K-Ras signaling through a RAF effector. Data is reported as IC50 values.
as §3, with “Compound was” for “Compound is”, “allophycocyanin was” for “allophycocyanin is”, “a K-Ras:RAF” for “a Ras:RAF”, “complex were” for “complex are”

[6] = biological target: K-Ras G13C (Homo sapiens (Human), UniProt P01116+P62937, G13C); assay: Ras-Raf (BRAF RBD) disruption / FRET / MOA assay, KRAS G13C; assay type: biochemical; conditions: KRAS G13C; Ras-Raf disruption/FRET/MOA assay; read-out: IC50* KRAS G13C FRET data
K-Ras G13C, sequence (P01116-2 other isoform, or with tags, fused parts or gaps G13C): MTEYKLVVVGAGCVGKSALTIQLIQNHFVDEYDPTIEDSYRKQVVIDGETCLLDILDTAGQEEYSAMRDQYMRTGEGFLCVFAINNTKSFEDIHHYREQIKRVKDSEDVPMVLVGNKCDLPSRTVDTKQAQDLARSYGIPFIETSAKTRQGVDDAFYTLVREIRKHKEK
K-Ras G13C, sequence (P62937 whole entry): as the sequence (P62937 whole entry) above
In short: as §1

[7] = biological target: KRAS G12V (Homo sapiens (Human), UniProt P01116+P62937, G12V); assay: Ras-Raf (BRAF RBD) disruption / FRET / MOA assay, KRAS G12V; assay type: biochemical; conditions: read-out: IC50* KRAS G12V FRET data
KRAS G12V, sequence (P01116-2 other isoform, or with tags, fused parts or gaps G12V): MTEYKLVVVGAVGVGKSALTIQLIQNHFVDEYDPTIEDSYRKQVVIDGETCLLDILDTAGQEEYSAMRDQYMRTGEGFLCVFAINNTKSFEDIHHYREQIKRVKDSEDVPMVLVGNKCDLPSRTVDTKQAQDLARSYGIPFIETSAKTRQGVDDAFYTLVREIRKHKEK
KRAS G12V, sequence (P62937 whole entry): as the sequence (P62937 whole entry) above
In short: as §1

[8] = biological target: KRAS WT (Homo sapiens (Human), UniProt P01116+P62937); assay: Ras-Raf (BRAF RBD) disruption / FRET / MOA assay, KRAS WT; assay type: biochemical; conditions: read-out: IC50* KRAS WT FRET data
KRAS WT, sequence (P01116-2 other isoform, or with tags, fused parts or gaps): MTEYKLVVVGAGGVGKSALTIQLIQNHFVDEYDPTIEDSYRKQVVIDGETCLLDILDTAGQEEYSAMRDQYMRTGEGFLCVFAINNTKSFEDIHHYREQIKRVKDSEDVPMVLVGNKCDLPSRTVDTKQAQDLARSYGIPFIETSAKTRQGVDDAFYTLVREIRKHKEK
KRAS WT, sequence (P62937 whole entry): as the sequence (P62937 whole entry) above
In short: as §1

[9] = biological target: KRAS G13D (Homo sapiens (Human), UniProt P01116+P62937, G13D); assay: Ras-Raf (BRAF RBD) disruption / FRET / MOA assay, KRAS G13D; assay type: biochemical; conditions: read-out: IC50* KRAS G13D FRET data
KRAS G13D, sequence (P01116-2 other isoform, or with tags, fused parts or gaps G13D): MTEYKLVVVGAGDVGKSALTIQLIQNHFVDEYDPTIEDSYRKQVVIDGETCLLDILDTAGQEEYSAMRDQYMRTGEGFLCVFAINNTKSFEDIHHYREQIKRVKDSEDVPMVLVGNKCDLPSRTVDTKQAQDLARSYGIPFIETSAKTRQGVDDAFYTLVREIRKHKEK
KRAS G13D, sequence (P62937 whole entry): as the sequence (P62937 whole entry) above
In short: as §1

[10] = biological target: NRAS G12C (Homo sapiens (Human), UniProt P01111+P62937, G12C); assay: Ras-Raf (BRAF RBD) disruption / FRET / MOA assay, NRAS G12C; assay type: biochemical; conditions: read-out: IC50* NRAS G12C FRET data
NRAS G12C, sequence (P01111 whole entry G12C): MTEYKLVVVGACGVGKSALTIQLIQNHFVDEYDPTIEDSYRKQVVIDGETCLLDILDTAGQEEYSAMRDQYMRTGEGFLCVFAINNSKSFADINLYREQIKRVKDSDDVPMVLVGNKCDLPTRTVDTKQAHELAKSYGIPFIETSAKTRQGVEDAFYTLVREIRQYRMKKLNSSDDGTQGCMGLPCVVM
NRAS G12C, sequence (P62937 whole entry): as the sequence (P62937 whole entry) above
In short: as §1

[11] = biological target: NRAS WT (Homo sapiens (Human), UniProt P01111+P62937); assay: Ras-Raf (BRAF RBD) disruption / FRET / MOA assay, NRAS WT; assay type: biochemical; conditions: read-out: IC50* NRAS WT FRET data
NRAS WT, sequence (P01111 whole entry): as the sequence (P01111 whole entry G12C) above, with C12G counted along it
NRAS WT, sequence (P62937 whole entry): as the sequence (P62937 whole entry) above
Procedure: as §2, §3, §4, §5
as §3, with “Compound was” for “Compound is”, “allophycocyanin was” for “allophycocyanin is”, “a K-Ras:RAF” for “a Ras:RAF”, “complex were” for “complex are”

[12] = biological target: K-Ras G12C (Homo sapiens (Human), UniProt P01116+P62937, G12C); assay: Ras-Raf (BRAF RBD) disruption / FRET / MOA assay, KRAS G12C; assay type: biochemical; conditions: KRAS G12C; Ras-Raf disruption/FRET/MOA assay; read-out: IC50* KRAS G12C FRET data
K-Ras G12C, sequence (P01116-2 other isoform, or with tags, fused parts or gaps G12C): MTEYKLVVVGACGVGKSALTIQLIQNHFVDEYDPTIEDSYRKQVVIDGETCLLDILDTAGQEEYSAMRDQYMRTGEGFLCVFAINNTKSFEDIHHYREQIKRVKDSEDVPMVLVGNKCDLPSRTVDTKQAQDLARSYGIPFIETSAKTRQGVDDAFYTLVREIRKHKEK
K-Ras G12C, sequence (P62937 whole entry): as the sequence (P62937 whole entry) above
In short: as §1

[13] = biological target: NRAS Q61R (Homo sapiens (Human), UniProt P01111+P62937, Q61R); assay: Ras-Raf (BRAF RBD) disruption / FRET / MOA assay, NRAS Q61R; assay type: biochemical; conditions: NRAS Q61R; Ras-Raf disruption/FRET/MOA assay; read-out: IC50* NRAS Q61R FRET data
NRAS Q61R, sequence (P01111 whole entry Q61R): as the sequence (P01111 whole entry G12C) above, with C12G, Q61R counted along it
NRAS Q61R, sequence (P62937 whole entry): as the sequence (P62937 whole entry) above
Procedure: as §2, §3, §4, §5
as §3, with “Compound was” for “Compound is”, “allophycocyanin was” for “allophycocyanin is”, “a K-Ras:RAF” for “a Ras:RAF”, “complex were” for “complex are”

[14] = biological target: NRAS Q61K (Homo sapiens (Human), UniProt P01111+P62937, Q61K); assay: Ras-Raf (BRAF RBD) disruption / FRET / MOA assay, NRAS Q61K; assay type: biochemical; conditions: NRAS Q61K; Ras-Raf disruption/FRET/MOA assay; read-out: IC50* NRAS Q61K FRET data
NRAS Q61K, sequence (P01111 whole entry Q61K): as the sequence (P01111 whole entry G12C) above, with C12G, Q61K counted along it
NRAS Q61K, sequence (P62937 whole entry): as the sequence (P62937 whole entry) above
Procedure: as §2, §3, §4, §5
as §3, with “Compound was” for “Compound is”, “allophycocyanin was” for “allophycocyanin is”, “a K-Ras:RAF” for “a Ras:RAF”, “complex were” for “complex are”

Row | SMILES | EC50 [1] | IC50 [2] | IC50 [3] | IC50 [4] | IC50 [5] | IC50 [6] | IC50 [7] | IC50 [8] | IC50 [9] | IC50 [10] | IC50 [11] | IC50 [12] | IC50 [13] | IC50 [14] | EC50 ([1]; Homo sapiens, NCI-H358)
1 | C=CC(=O)N1CC[C@H](C(=O)N(C)[C@H](C(=O)N[C@H]2Cc3cc(CF)cc(c3)-c3ccc4c(c3)c(c(-c3cccnc3[C@H](C)OC)n4CC)CC(C)(C)COC(=O)[C@@H]3CCCN(N3)C2=O)C(C)C)C1 (atropisomer, axis not shown) [Example A505] | < 5 µM | < 0.01 µM | 1 to 10 µM | 1 to 10 µM | 0.1 to 1 µM |  |  |  |  |  |  |  |  |  | 
2 | CCn1c(-c2cccnc2[C@H](C)OC)c2c3cc(ccc31)N1CCC[C@@H](C[C@H](NC(=O)[C@H](C(C)C)N(C)C(=O)C3(F)CCN(C(=O)C#CC(C)(C)N(C)C)CC3)C(=O)N3CCC[C@H](N3)C(=O)OCC(C)(C)C2)C1 (atropisomer, axis not shown) [Example A616] | < 5 µM | < 0.01 µM | 1 to 10 µM | > 10 µM | 1 to 10 µM | 1 to 10 µM | 1 to 10 µM | 1 to 10 µM | 1 to 10 µM | < 0.01 µM | 1 to 10 µM |  |  |  | 
3 | C=CC(=O)N1CC[C@H](C(=O)N(C)[C@H](C(=O)N[C@H]2Cc3cc(O)cc(c3)-c3ccc4c(c3)c(c(-c3ccc(N5CCN(C)CC5)nc3)n4CC)CC(C)(C)COC(=O)[C@@H]3CCCN(N3)C2=O)C(C)C)C1 [Example A089] |  |  | 1 to 10 µM | > 10 µM | 0.1 to 1 µM | 1 to 10 µM | 1 to 10 µM | 1 to 10 µM |  |  | 1 to 10 µM | 0.1 to 1 µM | 1 to 10 µM | 1 to 10 µM | 
4 | C=CC(=O)N1CC[C@H](C(=O)N(C)[C@H](C(=O)N[C@H]2Cc3cc(O)cc(c3)-c3ccc4c(c3)c(c(-c3cccnc3)n4C(C)(C)C#N)CC(C)(C)COC(=O)[C@@H]3CCCN(N3)C2=O)C(C)C)C1 [Example A148] |  |  | 0.1 to 1 µM and > 10 µM | 1 to 10 µM and > 10 µM | 0.01 to 0.1 µM | > 10 µM and 1 to 10 µM | 0.1 to 1 µM and > 10 µM | 0.1 to 1 µM and > 10 µM | 1 to 10 µM and > 10 µM |  | 0.1 to 1 µM | 0.01 to 0.1 µM and 1 to 10 µM | 0.1 to 1 µM | 0.1 to 1 µM | < 5 µM
5 | C=CC(=O)N1CC[C@H](C(=O)N(C)[C@H](C(=O)N[C@H]2Cc3cc(O)cc(c3)-c3ccc4c(c3)c(c(-c3cnn5c3[C@@H](OC)CCC5)n4CC)CC(C)(C)COC(=O)[C@@H]3CCCN(N3)C2=O)C(C)C)C1 [Example A333] | < 5 µM | < 0.01 µM | 0.01 to 0.1 µM | 0.1 to 1 µM | 0.01 to 0.1 µM |  |  |  |  |  |  |  |  |  | 
6 | C=CC(=O)N1CCN(C(=O)N(C)[C@H](C(=O)N[C@H]2Cc3cc(O)cc(c3)-c3ccc4c(c3)c(c(-c3cccnc3[C@H](C)OC)n4CC)CC(C)(C)COC(=O)[C@@H]3CCCN(N3)C2=O)C(C)C)CC1 [Example A338] | < 5 µM | 0.01 to 0.1 µM | 0.01 to 0.1 µM | 0.1 to 1 µM | 0.01 to 0.1 µM |  |  |  |  |  |  |  |  |  | 
7 | C=CC(=O)N1CCOC2(CCN(C(=O)N(C)[C@H](C(=O)N[C@H]3CN4CCC=C(C4)c4ccc5c(c4)c(c(-c4cccnc4[C@H](C)OC)n5CC)CC(C)(C)COC(=O)[C@@H]4CCCN(N4)C3=O)C(C)C)CC2)C1 [Example A563] | < 5 µM | 0.1 to 1 µM | 1 to 10 µM | > 10 µM | 1 to 10 µM |  |  |  |  |  |  |  |  |  | 
